Consider three compounds from patent publication US10442848B2, “Oxyntomodulin derivatives and pharmaceutical composition for treating obesity comprising the same” (HANMI SCIENCE CO., LTD, priority 2011, dated 2019).

One test addresses T1, human glucagon receptor (Homo sapiens, UniProt P47871).
T1 construct: expressed in transfected cells; host or cells: CHO DG44
Put plainly: cAMP response in CHO cell line expressing human glucagon receptor. In kind it is cell-based. The note with it: read-out: EC50 CHO/GCGR. On the procedure:
The PCR product was cloned into the known animal cell expression vector x0GC/dhfr to prepare a recombinant vector x0GC/GCGR.
CHO DG44 cell line cultured in DMEM/F12 (10% FBS) medium was transfected with the recombinant vector x0GC/GCGR using LIPOFECTAMINE®, and cultured in a selection medium containing 1 mg/mL G418 and 10 nM methotraxate.
The cultured cells were washed with KRB buffer and suspended in 40 ml of KRB buffer containing 1 mM IBMX, and left at room temperature for 5 minutes. […] Then, 20 mL of cell lysis buffer was added for cell lysis, and the cell lysates were applied to a cAMP assay kit (Molecular Device, USA) to measure cAMP concentrations. EC50 values were calculated therefrom, and compared to each other.

The conditions of test [1]: taken for 1 year; cited from earlier work.

pEC50: −log10 of the molar value.

T1 sequence (P47871 26-477): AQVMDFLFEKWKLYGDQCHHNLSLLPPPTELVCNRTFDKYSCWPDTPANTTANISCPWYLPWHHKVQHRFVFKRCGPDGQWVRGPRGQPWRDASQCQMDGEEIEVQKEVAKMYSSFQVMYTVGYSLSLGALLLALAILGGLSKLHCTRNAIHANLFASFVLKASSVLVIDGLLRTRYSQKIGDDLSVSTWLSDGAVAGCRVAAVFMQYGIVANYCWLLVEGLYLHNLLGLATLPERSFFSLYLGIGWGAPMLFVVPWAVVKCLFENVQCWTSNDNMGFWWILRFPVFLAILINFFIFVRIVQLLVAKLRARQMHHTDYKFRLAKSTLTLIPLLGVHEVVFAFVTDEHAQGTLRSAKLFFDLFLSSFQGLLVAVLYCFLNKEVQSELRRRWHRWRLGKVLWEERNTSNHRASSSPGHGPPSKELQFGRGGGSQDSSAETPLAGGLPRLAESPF

`CSCC[C@H](NC(=O)[C@H](CC(C)C)NC(=O)[C@H](Cc1c[nH]c2ccccc12)NC(=O)[C@H](CCC(N)=O)NC(=O)[C@@H](NC(=O)[C@H](Cc1ccccc1)NC(=O)[C@H](CCC(=O)O)NC(=O)[C@H](CCCCN)NC(=O)[C@H](C)NC(=O)[C@H](CCCNC(=N)N)NC(=O)[C@H](CCCCN)NC(=O)[C@H](CCC(=O)O)NC(=O)[C@H](CC(=O)O)NC(=O)[C@H](CC(C)C)NC(=O)[C@H](Cc1ccc(O)cc1)NC(=O)[C@H](CCCCN)NC(=O)[C@H](CO)NC(=O)[C@H](Cc1ccc(O)cc1)NC(=O)[C@H](CC(=O)O)NC(=O)[C@H](CO)NC(=O)[C@@H](NC(=O)[C@H](Cc1ccccc1)NC(=O)[C@@H](NC(=O)CNC(=O)[C@H](CCC(N)=O)NC(=O)C(C)(C)NC(=O)[C@@H](N)Cc1c[nH]cn1)[C@@H](C)O)[C@@H](C)O)C(C)C)C(=O)N[C@@H](CC(N)=O)C(=O)N[C@H](C(=O)N[C@@H](CS)C(=O)O)[C@@H](C)O` [SEQ ID NO. 24]: the pEC50 on human glucagon receptor is 8.16. For the compound `CSCC[C@H](NC(=O)[C@H](CC(C)C)NC(=O)[C@H](Cc1c[nH]c2ccccc12)NC(=O)[C@H](CCC(N)=O)NC(=O)[C@@H](NC(=O)[C@H](Cc1ccccc1)NC(=O)[C@H](CCC(=O)O)NC(=O)[C@@H]1CCCCNC(=O)CC[C@H](NC(=O)[C@H](CC(=O)O)NC(=O)[C@H](CC(C)C)NC(=O)[C@H](Cc2ccc(O)cc2)NC(=O)[C@H](CCCCN)NC(=O)[C@H](CO)NC(=O)[C@H](Cc2ccc(O)cc2)NC(=O)[C@H](CC(=O)O)NC(=O)[C@H](CO)NC(=O)[C@@H](NC(=O)[C@H](Cc2ccccc2)NC(=O)[C@@H](NC(=O)CNC(=O)[C@H](CCC(N)=O)NC(=O)C(C)(C)NC(=O)[C@@H](N)Cc2c[nH]cn2)[C@@H](C)O)[C@@H](C)O)C(=O)N[C@@H](CCCCN)C(=O)N[C@@H](CCCNC(=N)N)C(=O)N[C@@H](C)C(=O)N1)C(C)C)C(=O)N[C@@H](CC(N)=O)C(=O)N[C@H](C(=O)N[C@@H](CS)C(=O)O)[C@@H](C)O` [SEQ ID NO. 25], at human glucagon receptor, the pEC50 was 8.89.

Consider `CCCCCCCCCCC[C@@H](C[C@@H]1OC(=O)[C@H]1CCCCCC)OC(=O)[C@H](CC(C)C)NC=O` [orlistat], for which the weight loss in test [1] is 4 kg.
